20 compounds from US11634396B2 (priority 2021, dated 2023) can be followed below.

In general, IC50 refers to the midpoint of a concentration-inhibition curve.

A value given as a limit tells only on which side of the number the result lay.

The target in one assay is human mOR (Homo sapiens (Human), UniProt P35372). Nature of the assay: cell-based.
Chain of human mOR (P35372 whole entry): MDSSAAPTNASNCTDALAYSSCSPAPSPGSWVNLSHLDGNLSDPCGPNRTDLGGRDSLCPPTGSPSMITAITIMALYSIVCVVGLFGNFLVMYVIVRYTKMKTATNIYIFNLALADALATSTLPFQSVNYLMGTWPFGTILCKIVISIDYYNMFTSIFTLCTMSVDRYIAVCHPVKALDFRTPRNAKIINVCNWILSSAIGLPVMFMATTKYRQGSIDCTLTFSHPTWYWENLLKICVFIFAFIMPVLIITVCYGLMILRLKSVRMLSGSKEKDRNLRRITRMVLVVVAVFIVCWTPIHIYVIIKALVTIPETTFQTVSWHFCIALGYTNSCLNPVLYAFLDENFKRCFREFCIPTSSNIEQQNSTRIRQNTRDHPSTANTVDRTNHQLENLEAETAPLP
Details: not given
As to the method: CHO Tag-lite human mOR stable cell line from Cisbio (NCBI accession number: NM_000914.3, Bedford, Mass.) were seeded and grown to approximately 80% confluence in Ham F-12 with 10% FBS, 50 U/ml penicillin, 50 μg/ml streptomycin, 2 mM Hepes, and 1 mg/ml geneticin (Invitrogen, Carlsbad, Calif.). Cells were then harvested using accutase (Corning. Coming, N.Y.), centrifuged at 1300 RPM for 5 min, and plated at 5000 cells per 5 μL per well in a 5× dilution of stimulation buffer consisting of the HTRF cAMP Gi kit, water and IBMX at 0.5 mM (Cisbio, Bedford, Mass.) in white HTRF low volume 384 well plates (Cisbio, Bedford, Mass.). Plates were then incubated at 37° C. in 5% CO2 for 10 minutes. For the agonist assay, forskolin was added to a final concentration of 4 μM. […] Test compounds were dissolved in DMSO and water, and then serially diluted to working concentrations such that the concentration of DMSO was less than 0.1%. Diluted test compounds were added at 2.5 μL per well, and plates were incubated at 37° C., and 5% CO2 for 15 minutes, and then at room temperature for 15 minutes. Next 5 μl/well of cAMP Eu-cryptate and 5 μl/well of anti-cAMP-d2 (both diluted 1:20 in lysis buffer) were added, and plates were incubated at room temperature for 1 hour. Following incubation, plates were read in a Synergy Neo2 multi-mode reader (Biotek, Winooski, Vt.). […] For the agonist assay, data was normalized using the maximal DAMGO response. Measurements were performed in triplicate and the dose response was fit using nonlinear regression.
For the compound `CNC(=O)c1cc(F)c(C[C@@H](CNC(=O)C[C@H](c2cnc(C)nc2)C2(C(F)(F)F)CC2)N(C)C)c(F)c1` [Compound 105, 4-((S)-2-(dimethylamino)-3-((R)-3-(2-methylpyrimidin-5-yl)-3-(1-(trifluoromethyl)cyclopropyl)propanamido)propyl)-3,5-difluoro-N-methylbenzamide], the 50% inhibitory concentration (IC50) lay in the range of 300 to 3000 nM.

Regarding `CNC(=O)c1ccc(C[C@@H](CNC(=O)C[C@H](c2ccc(Cl)cc2)C2(C(F)(F)F)CC2)N(C)C)cc1F` [Compound 107, 4-((S)-3-((R)-3-(4-chlorophenyl)-3-(1-(trifluoromethyl)cyclopropyl)propanamido)-2-(dimethylamino)propyl)-2-fluoro-N-methylbenzamide], the IC50 is under 300 nM. As to `CNC(=O)c1ccc(C[C@@H](CNC(=O)CC(c2ncc(Cl)cn2)C2(C(F)(F)F)CC2)N(C)C)c(Cl)c1F` (stereo partly drawn) [Compound 112, 3-chloro-4-((2S)-3-(3-(5-chloropyrimidin-2-yl)-3-(1-(trifluoromethyl)cyclopropyl)propanamido)-2-(dimethylamino)propyl)-2-fluoro-N-methylbenzamide], the IC50 was over 3000 nM. On the same count and under the same terms, the result for `CNC(=O)c1ccc(C[C@@H](CNC(=O)C[C@H](c2ccc(C)nc2)C2(C(F)(F)F)CC2)N(C)C)c(Cl)c1` [Compound 113, 3-chloro-4-((S)-2-(dimethylamino)-3-((R)-3-(6-methylpyridin-3-yl)-3-(1-(trifluoromethyl)cyclopropyl)propanamido)propyl)-N-methylbenzamide] reads under 300 nM; that for `CNC(=O)c1ccc(C[C@@H](CNC(=O)C[C@H](c2cncc(Cl)c2)C2(C(F)(F)F)CC2)N(C)C)c(Cl)c1` [Compound 114, 3-chloro-4-((S)-3-((R)-3-(5-chloropyridin-3-yl)-3-(1-(trifluoromethyl)cyclopropyl)propanamido)-2-(dimethylamino)propyl)-N-methylbenzamide], under 300 nM. `CNC(=O)c1ccc(C[C@@H](CNC(=O)CC(c2cncc(F)c2)C2(C(F)(F)F)CC2)N(C)C)c(Cl)c1` (some centres unmarked) [Compound 116]: the IC50 was under 300 nM. Regarding `CNC(=O)c1ccc(C[C@@H](CNC(=O)CC(c2cncc(OC)c2)C2(C(F)(F)F)CC2)N(C)C)c(Cl)c1` (stereo partly drawn) [Compound 117, 3-chloro-4-((2S)-2-(dimethylamino)-3-(3-(5-methoxypyridin-3-yl)-3-(1-(trifluoromethyl)cyclopropyl)propanamido)propyl)-N-methylbenzamide], the IC50 is over 3000 nM.

Turning to `CNC(=O)c1ccc(C[C@@H](CNC(=O)CC(c2cc(C)ccn2)C2(C(F)(F)F)CC2)N(C)C)c(Cl)c1` (stereo partly drawn) [Compound 118, 3-chloro-4-((2S)-2-(dimethylamino)-3-(3-(4-methylpyridin-2-yl)-3-(1-(trifluoromethyl)cyclopropyl)propanamido)propyl)-N-methylbenzamide], the IC50 was over 3000 nM. In the case of `CNC(=O)c1ccc(C[C@@H](CNC(=O)CC(c2cccnc2)C2(C(F)(F)F)CC2)N(C)C)c(Cl)c1` (stereo partly drawn) [Compound 119, 3-chloro-4-((2S)-2-(dimethylamino)-3-(3-(pyridin-3-yl)-3-(1-(trifluoromethyl)cyclopropyl)propanamido)propyl)-N-methylbenzamide], the concentration for half-maximal inhibition (IC50) is under 300 nM. Same read-out and setting: with `CNC(=O)c1ccc(C[C@@H](CNC(=O)CC(c2ncccc2F)C2(C(F)(F)F)CC2)N(C)C)c(Cl)c1` (stereo partly drawn) [Compound 120, 3-chloro-4-((2S)-2-(dimethylamino)-3-(3-(3-fluoropyridin-2-yl)-3-(1-(trifluoromethyl)cyclopropyl)propanamido)propyl)-N-methylbenzamide] the figure was under 300 nM.

For the compound `CNC(=O)c1ccc(C[C@@H](CNC(=O)CC(c2ccc(F)cn2)C2(C(F)(F)F)CC2)N(C)C)c(Cl)c1` (stereo partly drawn) [Compound 121, 3-chloro-4-((2S)-2-(dimethylamino)-3-(3-(5-fluoropyridin-2-yl)-3-(1-(trifluoromethyl)cyclopropyl)propanamido)propyl)-N-methylbenzamide], the IC50 is under 300 nM. The same measure, in the same setting: the result for `CNC(=O)c1ccc(C[C@@H](CNC(=O)CC(c2ccc(Cl)cn2)C2(C(F)(F)F)CC2)N(C)C)c(Cl)c1` (stereo partly drawn) [Compound 122, 3-chloro-4-((2S)-3-(3-(5-chloropyridin-2-yl)-3-(1-(trifluoromethyl)cyclopropyl)propanamido)-2-(dimethylamino)propyl)-N-methylbenzamide] reads under 300 nM; that for `CNC(=O)c1ccc(C[C@@H](CNC(=O)C[C@H](c2cnc(C)s2)C2(C(F)(F)F)CC2)N(C)C)c(F)c1` [Compound 123, 4-((S)-2-(dimethylamino)-3-((S)-3-(2-methylthiazol-5-yl)-3-(1-(trifluoromethyl)cyclopropyl)propanamido)propyl)-3-fluoro-N-methylbenzamide], under 300 nM. On the same count and under the same terms, with `CNC(=O)c1ccc(C[C@@H](CNC(=O)C[C@H](c2ccc(C)nc2)C2(C(F)(F)F)CC2)N(C)C)c(C)c1F` [Compound 125, 4-((S)-2-(dimethylamino)-3-((R)-3-(6-methylpyridin-3-yl)-3-(1-(trifluoromethyl)cyclopropyl)propanamido)propyl)-2-fluoro-N,3-dimethylbenzamide] the figure was under 300 nM. Turning to `CNC(=O)c1ccc(C[C@@H](CNC(=O)C[C@@H](CC(C)C)c2cccnc2)N(C)C)c(C)c1` [Compound 126, 4-((S)-2-(dimethylamino)-3-((R)-5-methyl-3-(pyridin-3-yl)hexanamido)propyl)-N,3-dimethylbenzamide], the IC50 was over 3000 nM. Still for that read-out and setting: with `CNC(=O)c1ccc(C[C@@H](CNC(=O)C[C@H](c2ccncc2F)C2(C(F)(F)F)CC2)N(C)C)c(C)c1` [Compound 127, 4-((S)-2-(dimethylamino)-3-((R)-3-(3-fluoropyridin-4-yl)-3-(1-(trifluoromethyl)cyclopropyl)propanamido)propyl)-N,3-dimethylbenzamide] the figure was under 300 nM.

The same assay, now with this note: CHO Tag-lite human mOR stable cell line; forskolin 4 μM and DAMGO at EC90; read-out: mOR cAMP Antagonist Assay IC50.
In the case of `CNC(=O)c1cc(C)c(C[C@@H](CNC(=O)C[C@H](c2ccc(Cl)cc2)C2(C(F)(F)F)CC2)N(C)C)c(C)c1` [Compound 106, 4-((S)-3-((R)-3-(4-chlorophenyl)-3-(1-(trifluoromethyl)cyclopropyl)propanamido)-2-(dimethylamino)propyl)-3,5-trimethylbenzamide], the IC50 is over 3000 nM.

Turning to `CNC(=O)c1cc(C)c(C[C@@H](CNC(=O)C[C@@H](CC(C)C)c2ccccn2)N(C)C)c(C)c1` [Compound 108, 4-((S)-2-(dimethylamino)-3-((R)-5-methyl-3-(pyridin-2-yl)hexanamido)propyl)-N,3,5-trimethylbenzamide], the IC50 was over 3000 nM.

Regarding `CNC(=O)c1ccc(C[C@@H](CNC(=O)C[C@@H](c2ccncc2)C2(C(F)(F)F)CC2)N(C)C)c(Cl)c1F` [Compound 110, 3-chloro-4-((S)-2-(dimethylamino)-3-((S)-3-(pyridin-4-yl)-3-(1-(trifluoromethyl)cyclopropyl)propanamido)propyl)-2-fluoro-N-methylbenzamide], the IC50 is over 3000 nM.

The assay is the same for the next values; noted with them: read-out: mOR cAMP Antagonist Assay IC50.
`CNC(=O)c1ccc(C[C@@H](CNC(=O)CC(c2ccc(OC)nc2)C2(C(F)(F)F)CC2)N(C)C)c(Cl)c1` (stereo partly drawn) [Compound 115, 3-chloro-4-((2S)-2-(dimethylamino)-3-(3-(6-methoxypyridin-3-yl)-3-(1-(trifluoromethyl)cyclopropyl)propanamido)propyl)-N-methylbenzamide]: the half-maximal inhibitory concentration (IC50) was in the range of 300 to 3000 nM.
